In PubChem BioAssay AID248 (DTP/NCI, 2004):
“And” between values parts separate entries of the source, which are not always exact repeats. Identical values can stand only once. Inconclusive results and toxic doses are left out. Cut-off read from the data, not from the text of the source: active = T/C of 150% or more; inactive = T/C below 125%.

Test system: L1210 leukemia ip in BDF1 mice, survival T/C
Assay: NCI In Vivo Anticancer Drug Screen. Data for tumor model L1210 Leukemia (intraperitoneal) in B6D2F1 (BDF1) mice
Conditions: endpoint: mean survival time, higher = longer survival
Summary of the method: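 Transplantable tumor model; survival measured in treated vs vehicle control mice. Value = treated/control.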

[1] = dose: 50.0 mg/kg/injection, schedule: Q01DX009 (ip), vehicle: saline
[2] = dose: 100.0 mg/kg/injection, schedule: Q01DX009 (ip), vehicle: saline

Measured: T/C

C[N+](C)(Cc1ccc(F)cc1)C1c2ccccc2-c2ccccc21
inactive: dose: 6.25 mg/kg/injection, schedule: Q04DX003 (ip), vehicle: saline with Tween-80 90 % of control | dose: 25.0 mg/kg/injection, schedule: Q04DX003 (ip), vehicle: saline with Tween-80 89 % of control

COc1ccc(/C=C/C(C)=O)cc1OC
inactive: dose: 6.25 mg/kg/injection, schedule: Q01DX009 (ip), vehicle: saline 91 % of control | dose: 12.5 mg/kg/injection, schedule: Q01DX009 (ip), vehicle: saline 100 % of control | dose: 25.0 mg/kg/injection, schedule: Q01DX009 (ip), vehicle: saline 91 % of control | [1] 87 % of control | [2] 88 % of control | dose: 200.0 mg/kg/injection, schedule: Q01DX009 (ip), vehicle: saline 88 % of control

c1ccc2c(c1)ccc1ncccc12
inactive: dose: 100.0 mg/kg/injection, schedule: Q04DX003 (ip), vehicle: Klucel (hydroxypropylcellulose) (HPC) 103 % of control | dose: 200.0 mg/kg/injection, schedule: Q04DX003 (ip), vehicle: Klucel (hydroxypropylcellulose) (HPC) 102 % of control | dose: 400.0 mg/kg/injection, schedule: Q04DX003 (ip), vehicle: Klucel (hydroxypropylcellulose) (HPC) 101 % of control

CCC(Br)C(=O)O (stereo not drawn)
inactive: [1] 96 % of control and 97 % of control | dose: 50.0 mg/kg/injection, schedule: Q04DX003 (ip), vehicle: saline 95 % of control | dose: 100.0 mg/kg/injection, schedule: Q01DX001 (ip), vehicle: saline 92 % of control | [2] 89 % of control and 91 % of control | dose: 100.0 mg/kg/injection, schedule: Q04DX002 (ip), vehicle: saline 101 % of control | dose: 100.0 mg/kg/injection, schedule: Q04DX003 (ip), vehicle: saline 100 % of control | dose: 200.0 mg/kg/injection, schedule: Q01DX001 (ip), vehicle: saline 96 % of control | dose: 200.0 mg/kg/injection, schedule: Q04DX002 (ip), vehicle: saline 105 % of control | dose: 200.0 mg/kg/injection, schedule: Q04DX003 (ip), vehicle: saline 90 % of control

Nc1nc(NCCCc2ccccc2)c2[nH]cnc2n1
inactive: dose: 12.5 mg/kg/injection, schedule: Q04DX002 (ip), vehicle: Klucel (hydroxypropylcellulose) (HPC) 98 % of control | dose: 25.0 mg/kg/injection, schedule: Q04DX002 (ip), vehicle: Klucel (hydroxypropylcellulose) (HPC) 95 % of control | dose: 50.0 mg/kg/injection, schedule: Q04DX002 (ip), vehicle: Klucel (hydroxypropylcellulose) (HPC) 102 % of control
